Values of other authors as cited in US20200206299A1, “INHIBITORS OF BETA-ARRESTIN-NEUROKININ 1 RECEPTOR INTERACTIONS FOR THE TREATMENT OF PAIN” (priority 2016, published 2020).

Test system: capsaicin-evoked hyperalgesia
Conditions: intrathecal MEK inhibitor; Ji et al. 2002 is cited

N#CC(=C(/N)Sc1ccccc1N)/C(C#N)=C(\N)Sc1ccccc1N [U0126]
capsaicin-evoked hyperalgesia: inhibited
